For 1 molecule, Ki and bioavailability results are on record in ChEMBL document CHEMBL2321833, “Design and optimization of selective protein kinase C θ (PKCθ) inhibitors for the treatment of autoimmune diseases” (J Med Chem, 2013).

Data set [1] addresses T1, Serine/threonine-protein kinase D1 (Homo sapiens, UniProt Q15139).
T1 sequence (Q15139 whole entry): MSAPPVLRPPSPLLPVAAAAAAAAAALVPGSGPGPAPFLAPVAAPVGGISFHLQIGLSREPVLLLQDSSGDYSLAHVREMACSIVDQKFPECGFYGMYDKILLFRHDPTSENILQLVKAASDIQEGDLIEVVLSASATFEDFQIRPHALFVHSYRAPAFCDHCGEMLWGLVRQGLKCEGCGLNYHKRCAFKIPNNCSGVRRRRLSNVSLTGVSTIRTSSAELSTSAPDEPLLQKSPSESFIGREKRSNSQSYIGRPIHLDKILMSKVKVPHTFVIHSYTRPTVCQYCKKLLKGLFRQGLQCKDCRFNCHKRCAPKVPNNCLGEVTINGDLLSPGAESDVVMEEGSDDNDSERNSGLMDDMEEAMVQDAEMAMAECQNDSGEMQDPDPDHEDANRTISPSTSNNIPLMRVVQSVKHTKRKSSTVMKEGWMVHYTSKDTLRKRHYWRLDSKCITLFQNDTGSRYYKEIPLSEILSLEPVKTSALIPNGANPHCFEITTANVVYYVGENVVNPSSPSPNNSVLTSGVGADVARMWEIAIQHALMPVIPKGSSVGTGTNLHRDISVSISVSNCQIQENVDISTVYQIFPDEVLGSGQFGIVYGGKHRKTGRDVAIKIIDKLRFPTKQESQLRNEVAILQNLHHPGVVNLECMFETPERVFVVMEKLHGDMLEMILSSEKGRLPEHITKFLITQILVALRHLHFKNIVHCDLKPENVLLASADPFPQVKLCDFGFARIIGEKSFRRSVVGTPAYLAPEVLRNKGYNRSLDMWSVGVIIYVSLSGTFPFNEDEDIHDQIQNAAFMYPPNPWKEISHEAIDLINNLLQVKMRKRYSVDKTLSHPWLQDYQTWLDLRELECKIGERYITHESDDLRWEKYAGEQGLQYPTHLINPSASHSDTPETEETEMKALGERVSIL
Put plainly: Inhibition of PKC mu (unknown origin).

Data set [2] addresses T2, Protein kinase C epsilon type (Homo sapiens, UniProt Q02156).
T2 sequence (Q02156 whole entry): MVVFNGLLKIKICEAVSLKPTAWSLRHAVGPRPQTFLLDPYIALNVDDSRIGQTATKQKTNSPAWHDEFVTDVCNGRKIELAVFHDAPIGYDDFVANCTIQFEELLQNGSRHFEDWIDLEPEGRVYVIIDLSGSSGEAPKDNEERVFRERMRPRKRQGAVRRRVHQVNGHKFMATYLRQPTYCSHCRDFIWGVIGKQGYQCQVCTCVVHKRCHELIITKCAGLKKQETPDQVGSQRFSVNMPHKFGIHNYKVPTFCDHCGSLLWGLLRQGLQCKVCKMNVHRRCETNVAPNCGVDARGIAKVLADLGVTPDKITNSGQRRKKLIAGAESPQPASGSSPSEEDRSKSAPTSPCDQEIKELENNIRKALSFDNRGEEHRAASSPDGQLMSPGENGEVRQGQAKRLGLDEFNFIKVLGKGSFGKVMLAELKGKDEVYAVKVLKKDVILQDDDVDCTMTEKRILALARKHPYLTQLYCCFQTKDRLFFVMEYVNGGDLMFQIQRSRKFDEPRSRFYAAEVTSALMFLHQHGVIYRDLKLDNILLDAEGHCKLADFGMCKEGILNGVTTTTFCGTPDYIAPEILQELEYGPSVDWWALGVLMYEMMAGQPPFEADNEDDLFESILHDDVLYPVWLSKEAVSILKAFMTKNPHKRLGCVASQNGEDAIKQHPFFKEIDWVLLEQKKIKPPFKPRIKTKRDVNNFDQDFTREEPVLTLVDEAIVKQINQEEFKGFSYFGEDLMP
Kind of data set: Inhibition of PKC epsilon (unknown origin).

The nature of data set [3]: Oral bioavailability in rat at 10 mg/kg. In kind it is ADME, organism-based. The settings on record: in vivo.
Data set [4] has as its target Tyrosine-protein kinase Lyn (Homo sapiens, UniProt P07948). Kind of data set: Inhibition of Lyn (unknown origin).
Data set [5] concerns the target Protein kinase C beta type (Homo sapiens, UniProt P05771). Put plainly: Inhibition of PKC beta1 (unknown origin).

pKi: −log10 of the molar value. Some results are limits rather than exact numbers.

Sequence of Tyrosine-protein kinase Lyn (P07948 whole entry): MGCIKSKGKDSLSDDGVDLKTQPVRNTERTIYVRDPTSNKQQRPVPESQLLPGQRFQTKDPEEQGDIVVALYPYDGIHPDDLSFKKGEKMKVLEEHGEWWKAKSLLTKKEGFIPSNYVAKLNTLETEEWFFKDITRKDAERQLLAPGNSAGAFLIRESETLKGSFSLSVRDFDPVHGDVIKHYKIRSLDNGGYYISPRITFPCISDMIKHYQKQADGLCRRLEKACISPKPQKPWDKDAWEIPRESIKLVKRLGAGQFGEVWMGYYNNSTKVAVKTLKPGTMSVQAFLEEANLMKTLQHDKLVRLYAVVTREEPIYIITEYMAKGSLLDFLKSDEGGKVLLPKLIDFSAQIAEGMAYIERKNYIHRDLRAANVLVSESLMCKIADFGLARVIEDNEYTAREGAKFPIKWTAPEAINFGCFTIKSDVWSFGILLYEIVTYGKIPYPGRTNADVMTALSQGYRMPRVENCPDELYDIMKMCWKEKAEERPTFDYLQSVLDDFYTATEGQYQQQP
Sequence of Protein kinase C beta type (P05771 whole entry): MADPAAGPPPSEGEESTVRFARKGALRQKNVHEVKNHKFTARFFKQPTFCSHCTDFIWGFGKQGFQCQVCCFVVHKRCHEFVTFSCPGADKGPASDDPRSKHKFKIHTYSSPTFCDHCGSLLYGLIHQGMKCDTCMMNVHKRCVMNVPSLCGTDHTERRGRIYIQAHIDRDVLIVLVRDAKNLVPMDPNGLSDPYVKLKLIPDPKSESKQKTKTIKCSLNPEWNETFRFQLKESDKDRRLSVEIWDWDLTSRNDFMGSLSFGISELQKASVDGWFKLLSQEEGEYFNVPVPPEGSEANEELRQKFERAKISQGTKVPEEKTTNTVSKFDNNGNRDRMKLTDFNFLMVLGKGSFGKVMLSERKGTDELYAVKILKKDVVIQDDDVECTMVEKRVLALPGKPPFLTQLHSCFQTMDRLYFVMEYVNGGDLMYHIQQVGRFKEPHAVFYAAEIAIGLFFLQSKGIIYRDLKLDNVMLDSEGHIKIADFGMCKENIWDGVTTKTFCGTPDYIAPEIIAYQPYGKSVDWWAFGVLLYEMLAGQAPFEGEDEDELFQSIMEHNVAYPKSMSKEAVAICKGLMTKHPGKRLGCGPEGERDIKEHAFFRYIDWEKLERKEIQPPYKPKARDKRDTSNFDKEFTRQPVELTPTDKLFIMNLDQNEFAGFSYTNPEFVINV

The term pKi denotes the negative decadic logarithm of the Ki, by convention in mol/L. A word on the bioavailability: it is the share of a dose that reaches the circulation, judged against a reference dose that is usually intravenous. Higher therefore signals good availability. For the molecule `CC(C)[C@@](C)(O)[C@@H]1CN(c2nc(-c3n[nH]c4ncccc34)c(F)cc2Cl)CCN1`, the pKi is 5.62 in data set [1], 9.00 in data set [2], under 6.00 in data set [4] and 7.82 in data set [5]. The molecule also yielded a bioavailability in data set [3] of 65%.
